Several values for one entry are separate records, joined by “and”; a condition that tells them apart may be missing. Equal entries are not always repeated. After the bases stand the sugars from the 5' end (letter, count) and the backbone: PS all phosphorothioate, else s phosphorothioate and o phosphodiester by linkage. Methylation of C is not given here. e = 2'-O-(2-methoxyethyl) (MOE); k = constrained ethyl (cEt); d = 2'-deoxy (DNA)

These results are taken from the OligoGym collection.

The data set addresses IRF4. As to conditions: ASO.

Regarding CCGAGATATAAATAGC (sugars k3 d10 k3, PS), the target mRNA inhibition (MM.1R, 0.0625 µM) turned out to be 3%; the target mRNA inhibition (MM.1R, 0.074 µM) amounted to 7%; the target mRNA inhibition (MM.1R, 0.222 µM) was 9%; the target mRNA inhibition (MM.1R, 0.25 µM) was 12%; the target mRNA inhibition (MM.1R, 0.666 µM) was determined as 22%; the target mRNA inhibition (MM.1R, 1 µM) amounted to 25%. Besides, the target mRNA inhibition (MM.1R, 2 µM) was 38%; the target mRNA inhibition (MM.1R, 4 µM) is 52%; the target mRNA inhibition (SK-MEL-28, 4 µM) amounted to 61%.

For ACAGAGGTGGGAGTAC (sugars k3 d10 k3, PS), the target mRNA inhibition (SK-MEL-28, 4 µM) is -74%.

Take CTGCAGAACAGACGCG (sugars k3 d10 k3, PS): where the note is “SK-MEL-28, 4 µM”, the target mRNA inhibition is 11%.

With ATCAGAATGGCGAGTT (sugars k3 d10 k3, PS), where the note is “SK-MEL-28, 4 µM”, the target mRNA inhibition amounted to 47%.

For GCATTATCTACCTCAG (sugars k3 d10 k3, PS), the target mRNA inhibition (SK-MEL-28, 4 µM) is 69%.

Take “AAGTGTCTAAAGTCCC (sugars kddddddddddkekek, PS)”: the target mRNA inhibition (MM.1R, 1 µM) is -1%.

On to TTGATAAAGGCTGAAC (sugars k3 d10 k3, PS), for which the target mRNA inhibition (SK-MEL-28, 4 µM) amounted to 67%.

Regarding GCAAAACCAGTACAGT (sugars k3 d10 k3, PS), the target mRNA inhibition worked out at 3% (MM.1R, 0.0625 µM); 17% (MM.1R, 0.074 µM); 0% (MM.1R, 0.222 µM); 6% (MM.1R, 0.25 µM); 4% (MM.1R, 0.666 µM); 11% (MM.1R, 1 µM). Also, the target mRNA inhibition (MM.1R, 2 µM) is 13%; the target mRNA inhibition (MM.1R, 4 µM) came out at 26%; the target mRNA inhibition (SK-MEL-28, 4 µM) is 58%.

For the sequence CTTGAAGAGCGCGGCG (sugars k3 d10 k3, PS), where the note is “SK-MEL-28, 4 µM”, the target mRNA inhibition was found to be 21%.

For the sequence CTACACTTCCAAGCAA (sugars k3 d10 k3, PS), the target mRNA inhibition (SK-MEL-28, 4 µM) was -5%.

On to “GGTTGGCTGGTCTTTG (sugars kkdddddddddkekek, PS)”, for which the target mRNA inhibition (MM.1R, 0.0625 µM) was 34%; the target mRNA inhibition (MM.1R, 0.25 µM) stood at 44%; the target mRNA inhibition (MM.1R, 1 µM) was 67% and 63%; the target mRNA inhibition (MM.1R, 4 µM) came out at 82%.

Take CCAAGAGGTGCGAGTA (sugars k3 d10 k3, PS): the target mRNA inhibition (SK-MEL-28, 4 µM) was found to be 33%.

Consider TTACTTAGACATTACT (sugars k3 d10 k3, PS), for which, under “SK-MEL-28, 4 µM”, the target mRNA inhibition amounted to 48%.

On to GGCCTCTGAGCAGAAC (sugars k3 d10 k3, PS), for which the target mRNA inhibition (SK-MEL-28, 4 µM) was 27%.

On to ATAAACACCTCAGCTG (sugars k3 d10 k3, PS), for which the target mRNA inhibition (SK-MEL-28, 4 µM) was determined as 21%.

CAGGTTTCATTTCATT (sugars k4 d8 k4, PS): the target mRNA inhibition is 2% (MM.1R, 0.074 µM); 3% (MM.1R, 0.222 µM); 19% (MM.1R, 0.666 µM); 15% (MM.1R, 2 µM); 14% and 13% and 18% (SK-MEL-28, 0.185 µM); 54% (SK-MEL-28, 4 µM). Moreover, the target mRNA inhibition is, setting by setting: (SK-MEL-28, 5 µM) 57% and 55% and 67%; (SK-MEL-28, 15 µM) 74% and 72%.

ACACATTTGAGAGCTA (sugars k3 d10 k3, PS): the target mRNA inhibition (SK-MEL-28, 4 µM) amounted to 69%.

With AAACGAGTTGACACAG (sugars k3 d10 k3, PS), for the setting “SK-MEL-28, 4 µM”, the target mRNA inhibition turned out to be 20%.

Turning to CTGACAAGAACTGCTG (sugars k3 d10 k3, PS), the target mRNA inhibition (SK-MEL-28, 4 µM) stood at 21%.

Regarding GCTACAAAGAGCACTG (sugars k3 d10 k3, PS), the target mRNA inhibition (SK-MEL-28, 4 µM) is 63%.

As for “CAAGCAGTGATGTCAG (sugars kkddddddddddkeke, PS)”, the target mRNA inhibition (MM.1R, 1 µM) was 20% and 26%.

Turning to GGCACATCAATGTTTT (sugars k3 d10 k3, PS), the target mRNA inhibition (MM.1R, 1 µM) is 18% and 14%.

For the sequence AACTGGATTGATGTGA (sugars k3 d10 k3, PS), the target mRNA inhibition (SK-MEL-28, 4 µM) was determined as 77%.

Consider GACTTAGAGGACAGTG (sugars k3 d10 k3, PS), for which, for the setting “SK-MEL-28, 4 µM”, the target mRNA inhibition is 48%.

Turning to CTAGATTGTAGGACAG (sugars k3 d10 k3, PS), the target mRNA inhibition (SK-MEL-28, 4 µM) amounted to 48%.

CTGAGTTGTACAGGAC (sugars k3 d10 k3, PS): the target mRNA inhibition was 4% (MM.1R, 0.0625 µM); 22% (MM.1R, 0.25 µM); 55% and 52% (MM.1R, 1 µM); 81% (MM.1R, 4 µM).

For CGCTTTCACTAAAGTC (sugars k3 d10 k3, PS), the target mRNA inhibition (SK-MEL-28, 4 µM) was found to be 71%.

On to GGAAATACGACAACTT (sugars k3 d10 k3, PS), for which the target mRNA inhibition (SK-MEL-28, 4 µM) was 63%.

“GTGATGTCAGGTTTTC (sugars kkdddddddddkekek, PS)”: the target mRNA inhibition (MM.1R, 1 µM) came to 40%.

For TTAGAATGCATAACAC (sugars k3 d10 k3, PS), under “SK-MEL-28, 4 µM”, the target mRNA inhibition is 44%.

Regarding CGACAGCATAGCATTA (sugars k3 d10 k3, PS), the target mRNA inhibition (SK-MEL-28, 4 µM) worked out at 75%.

In the case of TCTGAGGGTCTGGAAA (sugars k4 d8 k4, PS), the target mRNA inhibition (SK-MEL-28, 4 µM) is 3%.

Regarding CGAGAACGCACGGACG (sugars k3 d10 k3, PS), the target mRNA inhibition (MM.1R, 1 µM) was -11%.

For ACCTGGCAACCATTTT (sugars k3 d10 k3, PS), for the setting “SK-MEL-28, 4 µM”, the target mRNA inhibition is 4%.

As for GCGGGCACAGCCGTCC (sugars k3 d10 k3, PS), the target mRNA inhibition (MM.1R, 1 µM) is -21%.

Take CCGGAGTCAGTGCTGG (sugars k3 d10 k3, PS): the target mRNA inhibition (SK-MEL-28, 4 µM) is -7%.

For “AGTTCATGTAAAGTCT (sugars kddddddddddkekek, PS)”, for the setting “MM.1R, 1 µM”, the target mRNA inhibition is 25% and 22%.

For the sequence TTCAACAGCACTGTCC (sugars k3 d10 k3, PS), the target mRNA inhibition (SK-MEL-28, 4 µM) was found to be 65%.

Consider AAGCAAGTCGGTCCAC (sugars k3 d10 k3, PS), for which, under “SK-MEL-28, 4 µM”, the target mRNA inhibition was 32%.

CACACTGCCGTGATCT (sugars k3 d10 k3, PS): the target mRNA inhibition (MM.1R, 1 µM) is 20%.

Consider CACAAAGCGGGTTCAC (sugars k3 d10 k3, PS), for which, for the setting “MM.1R, 1 µM”, the target mRNA inhibition was -12%.

Consider AAAAGCCCAAAATAGG (sugars k3 d10 k3, PS), for which the target mRNA inhibition (SK-MEL-28, 4 µM) was -12%.

On to GCCTTAATGTTCAGCT (sugars k3 d10 k3, PS), for which the target mRNA inhibition (SK-MEL-28, 4 µM) is 49%.

In the case of GCAGAAACAGCCCACT (sugars k3 d10 k3, PS), where the note is “SK-MEL-28, 4 µM”, the target mRNA inhibition was found to be 41%.

For the sequence “ATTATATACTGGTTGG (sugars kkdddddddddkdkdk, PS)”, under “MM.1R, 1 µM”, the target mRNA inhibition was 28%.

For the sequence TTACTAACTGGCTTCC (sugars k3 d10 k3, PS), the target mRNA inhibition (SK-MEL-28, 4 µM) was 49%.

In the case of GGAGTGATCTCTGTGG (sugars k3 d10 k3, PS), the target mRNA inhibition (SK-MEL-28, 4 µM) is 68%.

Turning to ATTGAGGCATACAGTG (sugars k3 d10 k3, PS), the target mRNA inhibition (SK-MEL-28, 4 µM) was determined as 30%.

For the sequence AGACCAATTTATGCCA (sugars k3 d10 k3, PS), the target mRNA inhibition (MM.1R, 1 µM) came out at 7%.

On to TCCTTTCCTACAGATC (sugars k3 d10 k3, PS), for which the target mRNA inhibition (SK-MEL-28, 4 µM) came to 33%.

For the sequence “ACTGTTACCGATGCTT (sugars k2 d9 e3 k2, PS)”, the target mRNA inhibition (MM.1R, 1 µM) was 27% and 34%.

Consider AGCTGCGGAGCCTGGG (sugars k3 d10 k3, PS), for which the target mRNA inhibition (MM.1R, 1 µM) turned out to be 31%.

For GTGCAGACCTGAATAG (sugars k3 d10 k3, PS), the target mRNA inhibition (SK-MEL-28, 4 µM) was found to be 14%.

As to CAGTAAACGCAAGTCT (sugars k3 d10 k3, PS), the target mRNA inhibition (MM.1R, 1 µM) was -14%.

CTGTTAAGTCCCATCT (sugars k3 d10 k3, PS): the target mRNA inhibition (SK-MEL-28, 4 µM) was 54%.

Regarding CATCTAATCCACAATC (sugars k3 d10 k3, PS), for the setting “MM.1R, 1 µM”, the target mRNA inhibition was -19%.

On to TCTAAGGCAAGCTGAA (sugars k3 d10 k3, PS), for which the target mRNA inhibition (SK-MEL-28, 4 µM) is 21%.

“GCACATCAATGTTTTA (sugars kdddddddddkekeke, PS)”: the target mRNA inhibition (MM.1R, 1 µM) is 17% and 15%.
